The values below come from patent US12378211B2, “Carbonic anhydrase inhibitors and antibiotics against multidrug resistant bacteria” (Purdue Research Foundation, priority 2018, dated 2025).

Converted amounts (≈) assume the structure as drawn. Where two headings read alike, the source gives them in different places.

In data set [1] the test system is Mutant-5 of Enterococcus fecalis NR 31975. As to the kind of experiment: microbe, parasite or virus in culture. In kind it is cell-based.
In data set [2] the test system is Mutant-2 of Enterococcus fecalis NR 31975. The experiment in a line: microbe, parasite or virus in culture. In kind it is cell-based.
The test system of data set [3] is fibroblast-like monkey kidney cell line (VERO cell). As to the kind of experiment: In vitro cytotoxicity, MTS assay, VERO cells. In kind it is cell-based. The note with it: at concentration up to 128 μg/mL; tested at 64 and 128 μg/mL; two hours. On the procedure:
Toxicity assessment: Compounds AS005H, AS005J, AS004B, AS005K, AS005A and 005D were assayed (at concentrations of 64 and 128 μg/mL) against a fibroblast-like monkey kidney cell line (VERO cell) to determine the potential toxic effect in vitro. Briefly, cells were cultured in Minimum Essential Medium (MEM) supplemented with 10% fetal bovine serum (FBS), 1 mM sodium pyruvate, and penicillin-streptomycin at 37° C. with CO2 (5%). Control cells received DMSO alone at a concentration equal to that in drug-treated cell samples. The cells were incubated with the compounds (in triplicate) in a 96-well plate at 37° C. with CO2 (5%) for two hours. The assay reagent MTS 3-(4,5-dimethylthiazol-2-yl)-5-(3-carboxymethoxyphenyl)-2-(4-sulfophenyl)-2H-tetrazolium) (Promega, Madison, WI, USA) was subsequently added and the plate was incubated for four hours. Absorbance readings (at OD490) were taken using a kinetic microplate reader (Molecular Devices, Sunnyvale, CA, USA). The quantity of viable cells after treatment with each compound was expressed as a percentage of the viability of DMSO-treated control cells (average of triplicate wells±standard deviation). The toxicity data was analyzed via a two-way ANOVA, with post hoc Dunnet's multiple comparisons test (P<0.05), utilizing GraphPad Prism 6.0 (GraphPad Software, La Jolla, CA).
(§1) Percent viable mammalian cells (measured as average absorbance ratio (test agent relative to DMSO) for cytotoxicity analysis of compounds AS005H, AS005J, AS004B, AS005K, AS005A and 005D (tested in triplicates) at 64 and 128 μg/mL against VERO cells using the MTS 3-(4,5-dimethylthiazol-2-yl)-5-(3-carboxymethoxyphenyl)-2-(4-sulfophenyl)-2H-tetrazolium) assay. Dimethyl sulfoxide (DMSO) was used as a negative control to determine a baseline measurement for the cytotoxic impact of each compound. The absorbance values represent an average of a minimum of three samples analyzed for each compound. Error bars represent standard deviation values for the absorbance values.

For data set [4], the system named is Mutant-12 of Enterococcus fecalis NR 31975. The experiment in a line: microbe, parasite or virus in culture. In kind it is cell-based.
Data set [5] concerns Mutant-3 of Enterococcus fecalis NR 31975. The experiment in a line: microbe, parasite or virus in culture. In kind it is cell-based.
Data set [6] deals with Wild-type E. fecalis (NR 31975). The experiment in a line: MIC against wild-type strain (mutant study). In kind it is cell-based, Enterococcus fecalis.
The subject of data set [7] is human colorectal adenocarcinoma (Caco-2) cell. The experiment in a line: In vitro cytotoxicity, MTS assay, Caco-2 cells. The note with it: at concentration up to 128 μg/mL; tested at 64 and 128 μg/mL; two hours. On the procedure: Method: Compounds AS005H, AS005J, AS004B, AS005K, AS005A and 005D were assayed (at concentrations of 64 and 128 μg/mL) against a human colorectal adenocarcinoma (Caco-2) cell to determine the potential toxic effect to mammalian cells in vitro. Briefly, cells were cultured in Dulbecco's Modified Eagle Medium (DMEM) supplemented with 20% fetal bovine serum (FBS), non-essential amino acids (1×), penicillin-streptomycin at 37° C. with CO2 (5%). Control cells received DMSO alone at a concentration equal to that in drug-treated cell samples. The cells were incubated with the compounds (in triplicate) in a 96-well plate at 37° C. with CO2 (5%) for two hours. The assay reagent MTS 3-(4,5-dimethylthiazol-2-yl)-5-(3-carboxymethoxyphenyl)-2-(4-sulfophenyl)-2H-tetrazolium) (Promega, Madison, WI, USA) was subsequently added and the plate was incubated for four hours. Absorbance readings (at OD490) were taken using a kinetic microplate reader (Molecular Devices, Sunnyvale, CA, USA). The quantity of viable cells after treatment with each compound was expressed as a percentage of the viability of DMSO-treated control cells (average of triplicate wells±standard deviation). The toxicity data was analyzed via a two-way ANOVA, with post hoc Dunnet's multiple comparisons test (P<0.05), utilizing GraphPad Prism 6.0 (GraphPad Software, La Jolla, CA).
as §1, with “of” for “of compounds”, “005D compounds” for “005D”, “triplicate)” for “triplicates)”, “Caco-2” for “VERO”, “values. […]” for “values.”

The test system of data set [8] is Enterococcus faecalis-S613 HM-334. The experiment in a line: MIC in presence of 4% human serum albumin. In kind it is cell-based. The note with it: TSB supplemented with 4% human serum albumin. On the procedure: The minimum inhibitory concentrations (MICs) of CAIs were tested against vancomycin resistant Enterococcus faecalis—S613 HM 334 strain as per the guidelines provided by the Clinical and Laboratory Standards Institute (CLSI). The selected strain was streaked on Tryptic Soy Agar (TSA) plate and let grow for 24 hours at 37° C. Afterwards, a bacterial solution equivalent to 0.5 McFarland standard was prepared and diluted in tryptone soy broth (TSB) supplemented with 4% human serum albumin (HAS) to achieve a bacterial concentration of about 5×10^5 CFU/mL and seeded in 96-well well plates. Compounds and control drugs were added in the first row of the 96-well plates and serially diluted along the plates. Plates were then incubated aerobically at 37° C. for 18-20 hours. MICs reported in table (6) are the minimum concentration of the compounds/control drugs that could inhibit completely the visual growth of the bacteria.

The mark [9] stands for this setting: Enterococcus, Table 4, read-out: MIC.

Consider `CCc1ccc(C(=O)Nc2nnc(S(N)(=O)=O)s2)cc1` [CAI0017, 4-Ethyl-N-(5-sulfamoyl-1,3,4-thiadiazol-2-yl)benzamide], for which the MIC in data set [1] (Enterococcus) turned out to be 8 µg/mL (≈ 25.6 µM); in data set [2] (Enterococcus) it was 8 µg/mL (≈ 25.6 µM); in data set [4] (Enterococcus) it was 16 µg/mL (≈ 51.2 µM); in data set [5] (Enterococcus), 8 µg/mL (≈ 25.6 µM); in data set [6] (setting [9]), 2 µg/mL (≈ 6.4 µM). For the same compound, the “toxicity to VERO cells (percent viable cells relative to DMSO)” value in data set [3] is “non-toxic”. In addition, the “toxicity to Caco-2 cells (percent viable cells relative to DMSO)” value in data set [7] is “non-toxic”.

With `NS(=O)(=O)c1nnc(NC(=O)CCC2CCCC2)s1` [CAI0015], the MIC was 1 µg/mL (≈ 3.29 µM) in data set [1] (Mutant-5); 2 µg/mL (≈ 6.57 µM) in data set [2] (Mutant-2); 2 µg/mL (≈ 6.57 µM) in data set [4] (Mutant-12); over 256 µg/mL in data set [8]; 1 µg/mL (≈ 3.29 µM) in data set [5] (Mutant-3); 0.0625 µg/mL (≈ 0.205 µM) in data set [6] (Table 4). In addition, the “toxicity to VERO cells (percent viable cells relative to DMSO)” value in data set [3] is “non-toxic”.

Regarding `CC(=O)Nc1nnc(S(N)(=O)=O)s1` [Acetazolamide, reference compound], the MIC is 32 µg/mL (≈ 144 µM) in data set [1] (Enterococcus); 16 µg/mL (≈ 72 µM) in data set [2] (Enterococcus); 32 µg/mL (≈ 144 µM) in data set [4] (Enterococcus); over 256 µg/mL in data set [8] (Enterococcus, read-out: MIC); 32 µg/mL (≈ 144 µM) in data set [5] (Enterococcus).

With `CC(C)=CC(=O)Nc1nnc(S(N)(=O)=O)s1` [CAI0016, 3-Methyl-N-(5-sulfamoyl-1,3,4-thiadiazol-2-yl) but-2-enamide], the MIC is 4 µg/mL (≈ 15.2 µM) in data set [1] (Mutant-5); 8 µg/mL (≈ 30.5 µM) in data set [2] (Mutant-2); 8 µg/mL (≈ 30.5 µM) in data set [4] (Mutant-12); over 256 µg/mL in data set [8]; 4 µg/mL (≈ 15.2 µM) in data set [5] (Mutant-3); 1 µg/mL (≈ 3.81 µM) in data set [6] (Table 4). Besides, the “toxicity to VERO cells (percent viable cells relative to DMSO)” value in data set [3] is “non-toxic”.

As for `CC(C)(C)C(=O)Nc1nnc(S(N)(=O)=O)s1` [CAI0010, N-(5-Sulfamoyl-1,3,4-thiadiazol-2-yl) pivalamide], the MIC in data set [1] (Enterococcus) is 4 µg/mL (≈ 15.1 µM); in data set [2] (Enterococcus), 8 µg/mL (≈ 30.3 µM); in data set [4] (Enterococcus) it was 8 µg/mL (≈ 30.3 µM); in data set [8] (Enterococcus, read-out: MIC), over 256 µg/mL; in data set [5] (Enterococcus), 4 µg/mL (≈ 15.1 µM); in data set [6] (setting [9]), 0.5 µg/mL (≈ 1.89 µM). Further, in data set [3], the “toxicity to VERO cells (percent viable cells relative to DMSO)” value was “non-toxic”. For the same compound, the “toxicity to Caco-2 cells (percent viable cells relative to DMSO)” value in data set [7] is “non-toxic”.

With `CC(C)C(=O)Nc1nnc(S(N)(=O)=O)s1` [CAI0011, N-(5-Sulfamoyl-1,3,4-thiadiazol-2-yl) isobutyramide], the “toxicity to VERO cells (percent viable cells relative to DMSO)” value in data set [3] was “non-toxic”. The “toxicity to Caco-2 cells (percent viable cells relative to DMSO)” value in data set [7] is “non-toxic”.

`CC(=O)NC[C@H]1CN(c2ccc(N3CCOCC3)c(F)c2)C(=O)O1` [Linezolid, reference compound]: the MIC in data set [1] (Enterococcus), in data set [2] (Enterococcus), in data set [4] (Enterococcus) and in data set [5] (Enterococcus) was 4 µg/mL (≈ 11.9 µM) throughout.
